Experiments:
[1] = biological target: T1, glucocorticoid/Drosophila ecdysone chimeric receptor (UniProt P04150+P34021); experiment: Maize protoplast GUS reporter assay with pMF6GREcRS and p221.9GRE6; format: cell-based; details: maize protoplasts, reporter plus effector
T1 construct: expressed in transfected cells; host or cells: maize suspension-culture protoplasts
T1 sequence (P04150+P34021 with tags, fused parts or gaps): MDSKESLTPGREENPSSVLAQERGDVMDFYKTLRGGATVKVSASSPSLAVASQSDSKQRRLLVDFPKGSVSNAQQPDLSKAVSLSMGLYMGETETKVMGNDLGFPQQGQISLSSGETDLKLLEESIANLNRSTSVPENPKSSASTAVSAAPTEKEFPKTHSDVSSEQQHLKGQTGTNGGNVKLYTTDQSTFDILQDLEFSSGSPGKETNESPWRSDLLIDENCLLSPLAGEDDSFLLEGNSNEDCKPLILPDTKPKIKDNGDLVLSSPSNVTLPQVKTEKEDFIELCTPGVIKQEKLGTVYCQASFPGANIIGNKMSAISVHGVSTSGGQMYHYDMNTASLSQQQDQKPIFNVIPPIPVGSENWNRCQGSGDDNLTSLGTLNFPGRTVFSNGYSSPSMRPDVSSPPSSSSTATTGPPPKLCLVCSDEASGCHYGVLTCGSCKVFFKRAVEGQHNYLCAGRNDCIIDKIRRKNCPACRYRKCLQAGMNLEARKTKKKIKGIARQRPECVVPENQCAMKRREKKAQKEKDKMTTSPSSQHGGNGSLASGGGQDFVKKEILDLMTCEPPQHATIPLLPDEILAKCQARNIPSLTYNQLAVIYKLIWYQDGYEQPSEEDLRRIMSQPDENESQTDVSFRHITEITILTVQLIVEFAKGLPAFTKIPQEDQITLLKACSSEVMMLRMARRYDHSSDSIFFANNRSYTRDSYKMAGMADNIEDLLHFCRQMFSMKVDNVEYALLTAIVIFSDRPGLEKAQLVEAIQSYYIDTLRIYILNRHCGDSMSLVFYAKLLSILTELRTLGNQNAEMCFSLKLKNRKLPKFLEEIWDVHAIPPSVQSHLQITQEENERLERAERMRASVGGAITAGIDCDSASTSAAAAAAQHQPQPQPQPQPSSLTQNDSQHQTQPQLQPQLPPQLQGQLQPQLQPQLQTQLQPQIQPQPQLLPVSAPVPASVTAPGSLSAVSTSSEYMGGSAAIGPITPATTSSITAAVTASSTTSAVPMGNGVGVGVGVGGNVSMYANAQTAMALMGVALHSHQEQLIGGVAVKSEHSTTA
Protocol: Protoplasts were isolated from a maize suspension culture derived from BE70×A188 embryogenic callus material, which was maintained by subculturing twice weekly in MS0.5mod. (MS medium supplemented with 3% sucrose, 690 mg/l proline, 1 g/l myo-inositol, 0.2 g/l casein acid hydrolysate, 0.5 mg/l 2,4-D, pH 5.6). Cells from suspensions two days post subculture were digested in enzyme mixture (2.0% Cellulase RS, 0.2% Pectolyase Y23, 0.5 M Mannitol, 5 mM CaCl2.2H2O, 0.5% MES, pH 5.6, ˜660 mmol/kg) using ˜10 ml/g cells, incubating at 25° C., dim light, rotating gently for ˜2 hours. The digestion mixture was sieved sequentially through 250 μm and 38 μm sieves, and the filtrate centrifuged at 700 rpm for 3.5 minutes, discarding the supernatant. The protoplasts were resuspended in wash buffer (0.358 M KCl, 1.0 mM NH4NO3, 5.0 mM CaCl2.2H2O, 0.5 mM KH2PO4, pH 4.8, ˜670 mmol/kg) and pelleted as before. This washing step was repeated. The pellet was resuspended in wash buffer and the protoplasts were counted. Transformation was achieved using a Polyethylene glycol method based on Negrutiu et al. Protoplasts were resuspended at 2×10^6/ml in MaMg medium (0.4 M Mannitol, 15 mM MgCl2, 0.1% MES, pH 5.6, ˜450 mmol/kg) aliquotting 0.5 ml/treatment (i.e. 1×10^6 protoplasts/treatment). Samples were heat shocked at 45° C. for 5 minutes then cooled to room temperature. 10 μg each of p221.9GRE6 and pMF6HR1PAT (GR) (1 mg/ml)/treatment were added and mixed in gently, followed by immediate addition of 0.5 ml warm (˜45° C.) PEG solution (40% PEG 3,350 MW in 0.4 M Mannitol, 0.1 M Ca(NO3)2, pH 8.0), which was mixed in thoroughly but gently. Treatments were incubated at room temperature for 20–25 minutes, then 5 ml 0.292 M KCl (pH 5.6, ˜530 mmol/kg) was added step-wise, 1 ml at a time, with mixing. The treatments were incubated for a further 10–15 minutes prior to pelleting the protoplasts by centrifuging as before. […] Protein concentrations of tissue homogenates were determined by the Bio-Rad protein assay (Bradford, 1976). […]

[2] = biological target: T2, glucocorticoid/Heliothis ecdysone chimeric receptor (UniProt O18473+P04150); experiment: HEK293 cells co-transfected with pcDNA3GRHEcR and pSWGRE4 (β-galactosidase reporter); format: cell-based, Heliothis virescens; design: expressed in transfected cells; host or cells: HEK293 (A8); details: co-transformed HEK293 cells (FIG. 28)
T2 sequence (P04150+O18473 with tags, fused parts or gaps): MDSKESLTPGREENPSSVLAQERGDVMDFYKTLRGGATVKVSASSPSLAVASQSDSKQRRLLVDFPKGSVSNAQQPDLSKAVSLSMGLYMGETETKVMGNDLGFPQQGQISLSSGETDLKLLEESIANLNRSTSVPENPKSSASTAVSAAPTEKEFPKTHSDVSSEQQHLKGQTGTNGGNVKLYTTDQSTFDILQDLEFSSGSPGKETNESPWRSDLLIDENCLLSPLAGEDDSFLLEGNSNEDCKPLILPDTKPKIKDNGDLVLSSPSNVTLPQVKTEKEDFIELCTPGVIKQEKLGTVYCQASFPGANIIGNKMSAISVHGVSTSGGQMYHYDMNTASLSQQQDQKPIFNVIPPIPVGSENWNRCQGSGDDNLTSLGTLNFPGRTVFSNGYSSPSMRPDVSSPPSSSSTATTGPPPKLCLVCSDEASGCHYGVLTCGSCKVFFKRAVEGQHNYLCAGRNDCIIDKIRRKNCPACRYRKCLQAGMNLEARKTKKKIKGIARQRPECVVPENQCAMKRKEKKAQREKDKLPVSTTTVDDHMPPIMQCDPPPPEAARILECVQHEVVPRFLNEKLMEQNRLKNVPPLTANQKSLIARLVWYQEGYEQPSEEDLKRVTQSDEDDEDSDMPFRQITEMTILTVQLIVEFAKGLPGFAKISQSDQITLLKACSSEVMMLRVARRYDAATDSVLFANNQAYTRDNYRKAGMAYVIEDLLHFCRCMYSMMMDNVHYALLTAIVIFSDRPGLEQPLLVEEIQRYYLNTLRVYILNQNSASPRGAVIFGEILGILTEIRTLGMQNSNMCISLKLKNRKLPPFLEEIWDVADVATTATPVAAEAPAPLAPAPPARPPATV
Protocol: Transfections of mammalian cell lines (CHO-K1 Chinese hamster ovary) ATCC number CCL61 or cos-1 (Monkey cell line) were performed using either calcium phosphate precipitation (Gorman, Chapter 6 of “DNA cloning: a practical approach. Vol 2 D. M. Glover ed/.(1985) IRL Press, Oxford) or using LipofectAMINE (Gibco BRL Cat. No. 18324–012, following manufacturer's instructions). […] 293 cells were transfected using analogous methods.
The mammalian expression vector used in this experiment was pcDNA3 (Invitrogen). The GRHEcR 2.7 kb BamHI DNA fragment (isolated from pMF6GRHEcR) was introduced into the pcDNA3 BamHI vector. The recombinants were oriented by restriction enzyme mapping. The DNA sequence of the junctions was determined to ensure correct orientation and insertion (pcDNA3GRHEcR, FIG. 25).
The reporter plasmid for mammalian cell system was produced by taking pSWBGAL plasmid and replacing the CRESW SpeI/ClaI fragment for a synthetic 105 bp DNA fragment containing 4 copies of the glucocorticoid response element (GRE) and flanked by SpeI at the 5′ end and AflII at the 3′ end.
The two oligonucleotides were purified annealed and ligated to pSWBGAL SpeI/AflII to produce pSWGRE4 (FIG. 26).

[3] = biological target: T2, glucocorticoid/Heliothis ecdysone chimeric receptor; experiment: Maize protoplast GUS reporter assay with pMF6GRHEcR and p221.9GRE6; format: cell-based, Heliothis virescens; design: expressed in transfected cells; host or cells: maize protoplasts (A5); tobacco mesophyll protoplasts (A6); CHO-K1 (A7); HEK293 (A8); stably transformed tobacco plants (A9); details: maize protoplasts
Protocol: Protoplasts were isolated from a maize suspension culture derived from BE70×A188 embryogenic callus material, which was maintained by subculturing twice weekly in MS0.5mod. (MS medium supplemented with 3% sucrose, 690 mg/l proline, 1 g/l myo-inositol, 0.2 g/l casein acid hydrolysate, 0.5 mg/l 2,4-D, pH 5.6). Cells from suspensions two days post subculture were digested in enzyme mixture (2.0% Cellulase RS, 0.2% Pectolyase Y23, 0.5 M Mannitol, 5 mM CaCl2.2H2O, 0.5% MES, pH 5.6, ˜660 mmol/kg) using ˜10 ml/g cells, incubating at 25° C., dim light, rotating gently for ˜2 hours. The digestion mixture was sieved sequentially through 250 μm and 38 μm sieves, and the filtrate centrifuged at 700 rpm for 3.5 minutes, discarding the supernatant. The protoplasts were resuspended in wash buffer (0.358 M KCl, 1.0 mM NH4NO3, 5.0 mM CaCl2.2H2O, 0.5 mM KH2PO4, pH 4.8, ˜670 mmol/kg) and pelleted as before. This washing step was repeated. The pellet was resuspended in wash buffer and the protoplasts were counted. Transformation was achieved using a Polyethylene glycol method based on Negrutiu et al. Protoplasts were resuspended at 2×10^6/ml in MaMg medium (0.4 M Mannitol, 15 mM MgCl2, 0.1% MES, pH 5.6, ˜450 mmol/kg) aliquotting 0.5 ml/treatment (i.e. 1×10^6 protoplasts/treatment). Samples were heat shocked at 45° C. for 5 minutes then cooled to room temperature. […]

| SMILES | marker gene activity ([1]; 100 μM) | chemical induced reporter gene activity [2] | response of reporter ([3]; 100 μM) | chemical induced reporter gene activity / induced levels of expression ([1]; concentration not given) | chemical induced reporter gene activity ([3]; concentration not printed (FIG. 20)) |
| --- | --- | --- | --- | --- | --- |
| CC(C)CC[C@@H](O)[C@](C)(O)[C@H]1CC[C@@]2(O)C3=CC(=O)[C@]4(O)C[C@@H](O)[C@@H](O)C[C@]4(C)[C@H]3[C@H](O)C[C@]12C [Muristerone A] | significant elevation of marker gene activity | induction of reporter activity was observed | no response | – | – |
| CCc1ccc(C(=O)NN(C(=O)c2cc(C)cc(C)c2)C(C)(C)C)cc1 [RH5992, 3,5-dimethylbenzoic acid 1-1(1,1-dimethylethyl)-2(4-ethylbenzoyl)hydrazide] | – | significant chemical induced reporter gene activity | – | no chemical induced reporter gene activity | significant chemical induced reporter gene activity |
